# Like-named read-outs stand apart in the source and are kept apart here.
# Legend:
# [1] = target: T1, Human PDE9 (Homo sapiens (Human), UniProt O76083); settings: background statement; read-out: binding constant (Km) of PDE9; cited from earlier work
# [2] = target: T1, Human PDE9; settings: background statement, in words; cited from earlier work
# [3] = target: PDE1A1 Enzyme (Homo sapiens (Human), UniProt P54750); experiment: PDE enzymology evaluation, PDE1A1; type: biochemical
# Method: (§1) Experimental Example 5: PDE Enzymology Evaluation Method
# (§2) Test substance: Compounds of the invention, prepared by the corresponding examples of the invention
# (§3) 1. Experimental materials and instruments
# PDE1A1 Enzyme (BPS, Cat. No. 60010)
# (§4) 2. Experimental procedure
# (§5) Preparation of the compounds: the compounds were prepared into 10 mM compound stock solution in DMSO for long-term storage. The obtained compound stock solution was diluted in 100 times with DMSO to obtain 100 μM compound working mother solution, and then the compound working mother solution was diluted in 3 times with DMSO to obtain 10 concentration gradients of diluted compound mother liquor (100×).
# (§6) Incubation with the compounds: A very small amount of liquid pipetting system Echo was used to pipette the diluted compound mother liquor into a 384-well plate. 200 nL diluted compound mother liquor and 10 μL PDE1A1, PDE3A, PDE5A1 and PDE8A1 enzyme solution were added to each compound well. […] In the maximum reading hole (Max), the compound was replaced by solvent. In the minimum reading hole (Min), the compound and enzyme solution were replaced by solvent.
# (§7) Detection: Fluorescence readings (F) at 480 nm/535 nm were detected using a microplate reader.
# (§8) Calculation: The inhibition rate was calculated as follows, and IC50 was fitted using GraphPad Prism 5.0: […]
# [4] = target: PDE3A Enzyme (Homo sapiens (Human), UniProt Q14432); experiment: PDE enzymology evaluation, PDE3A; type: biochemical
# Method: as §1, §2, §3
# PDE3A Enzyme (BPS, Cat. No. 60030)
# as §4, §5, §6, §7, §8
# [5] = target: PDE8A1 Enzyme (Homo sapiens (Human), UniProt O60658); experiment: PDE enzymology evaluation, PDE8A1; type: biochemical
# Method: as §1, §2, §3
# PDE8A1 Enzyme (BPS, Cat. No. 60080)
# as §4, §5, §6, §7, §8
# [6] = target: PDE5A1 Enzyme (Homo sapiens (Human), UniProt O76074); experiment: PDE enzymology evaluation, PDE5A1; type: biochemical
# Method: as §1, §2, §3
# PDE5A1 Enzyme (BPS, Cat. No. 60050)
# as §4, §5, §6, §7, §8
# [7] = human; for CLint: microsomes
# [8] = in vitro; settings: human, microsomes
# [9] = Rat pharmacokinetic evaluation; type: in vivo, SD male rats; settings: SD rat, intravenous bolus 1 mg/kg; for AUC(0-t) / clearance / half-life: male, Sprague-Dawley, plasma; for AUC(0-t): read-out: AUClast iv; for clearance: read-out: Cl_obs iv (clearance rate) (converted); for half-life: read-out: tz1/2 iv (terminal elimination half-life) (converted)
# [10] = Canine pharmacokinetic evaluation; type: in vivo; settings: Beagle dogs
# Text: 1. Animal Administration and Sample Collection
# 2. Sample Analysis Method
# 3. Data Processing Method
# [11] = Rat pharmacokinetic evaluation; type: in vivo, SD male rats; settings: male, Sprague-Dawley, plasma, SD rat; for Tmax / AUC(0-t) / half-life: po, intragastric 5 mg/kg; for Tmax: median; for AUC(0-t): read-out: AUClast po; for half-life: read-out: tz1/2 po (terminal elimination half-life) (converted); for bioavailability: dose iv/po 1/5 mg/kg, read-out: F % (absolute bioavailability)
# Method: Experimental Example 4: Rat Pharmacokinetic Evaluation of the Compounds of the Invention
# Aim: The in vivo pharmacokinetic parameters of the compounds in SD male rats (purchased from Beijing Vital River Animal Technology Co., Ltd.) were evaluated and bioavailability of the compounds was examined.
# Animal Administration and Sample Collection:
# The solution of compounds 65, 90, 107, 158 was intragastrically administered to SD rat at a dose of 5.0 mg/kg.
# The experimental compound 76 was dissolved in 30% DMF+30% PEG400+40% saline to prepare a solution. The solution of compound 76 was intragastrically administered to SD rat at a dose of 5.0 mg/kg.
# The experimental compound 76 was dissolved in 30% DMF+30% PEG400+40% saline to prepare a solution.
# The experimental compounds 84 and 96 were dissolved in 5% DMSO+10% PEG400+85% (28% HP-β-CD) saline to prepare a solution. The solution of compounds 84 and 96 was intragastrically administered to SD rat at a dose of 5.0 mg/kg.
# The experimental compounds 84 and 96 were dissolved in 5% DMSO+10% PEG400+85% (28% HP-β-CD) saline to prepare a solution.
# The animals were fixed. The tail was heated with a water bath at 10 min before each time point. About 100 μL of blood from tail vein was collected, and then placed in an anti-coagulation tube containing EDTA-K2 after collection. Blood samples were centrifuged at 8000 rpm at 4° C. for 6 min to obtain plasma samples.
# The concentration of test sample was output using Analyst 1.6.1 from AB SCIEX.
# T1 sequence (O76083 whole entry): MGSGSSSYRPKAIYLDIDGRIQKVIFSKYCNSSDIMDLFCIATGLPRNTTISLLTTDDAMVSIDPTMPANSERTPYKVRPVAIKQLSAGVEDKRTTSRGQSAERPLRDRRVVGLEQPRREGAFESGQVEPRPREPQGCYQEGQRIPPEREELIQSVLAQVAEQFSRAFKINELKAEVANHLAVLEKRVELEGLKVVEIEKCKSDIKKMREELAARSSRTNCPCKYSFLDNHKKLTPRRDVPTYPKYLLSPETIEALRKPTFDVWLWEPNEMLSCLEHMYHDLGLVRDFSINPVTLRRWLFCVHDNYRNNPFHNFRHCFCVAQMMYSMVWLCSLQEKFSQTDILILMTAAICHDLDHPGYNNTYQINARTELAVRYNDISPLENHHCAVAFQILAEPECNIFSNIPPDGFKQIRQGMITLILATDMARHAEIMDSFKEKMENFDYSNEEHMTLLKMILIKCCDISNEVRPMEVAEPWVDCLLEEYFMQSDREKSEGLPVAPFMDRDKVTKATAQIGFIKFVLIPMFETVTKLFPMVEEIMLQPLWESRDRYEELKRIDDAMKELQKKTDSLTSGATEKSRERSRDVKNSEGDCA
# Sequence of PDE1A1 Enzyme (P54750 whole entry, change not shown): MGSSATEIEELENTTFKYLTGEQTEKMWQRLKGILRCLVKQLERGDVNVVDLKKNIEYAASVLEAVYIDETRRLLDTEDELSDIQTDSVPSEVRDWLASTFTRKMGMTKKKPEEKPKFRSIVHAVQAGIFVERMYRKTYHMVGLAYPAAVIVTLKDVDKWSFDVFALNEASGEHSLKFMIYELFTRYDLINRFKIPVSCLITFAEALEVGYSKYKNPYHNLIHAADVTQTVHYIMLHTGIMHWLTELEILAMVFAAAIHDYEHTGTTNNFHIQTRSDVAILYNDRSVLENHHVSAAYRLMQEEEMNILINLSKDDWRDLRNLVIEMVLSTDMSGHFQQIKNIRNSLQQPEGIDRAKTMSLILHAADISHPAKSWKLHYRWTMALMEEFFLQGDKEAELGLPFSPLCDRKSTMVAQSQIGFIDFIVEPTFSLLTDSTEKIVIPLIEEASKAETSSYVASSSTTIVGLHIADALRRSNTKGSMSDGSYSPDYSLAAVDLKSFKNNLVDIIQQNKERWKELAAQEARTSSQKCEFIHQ
# Sequence of PDE3A Enzyme (Q14432 whole entry): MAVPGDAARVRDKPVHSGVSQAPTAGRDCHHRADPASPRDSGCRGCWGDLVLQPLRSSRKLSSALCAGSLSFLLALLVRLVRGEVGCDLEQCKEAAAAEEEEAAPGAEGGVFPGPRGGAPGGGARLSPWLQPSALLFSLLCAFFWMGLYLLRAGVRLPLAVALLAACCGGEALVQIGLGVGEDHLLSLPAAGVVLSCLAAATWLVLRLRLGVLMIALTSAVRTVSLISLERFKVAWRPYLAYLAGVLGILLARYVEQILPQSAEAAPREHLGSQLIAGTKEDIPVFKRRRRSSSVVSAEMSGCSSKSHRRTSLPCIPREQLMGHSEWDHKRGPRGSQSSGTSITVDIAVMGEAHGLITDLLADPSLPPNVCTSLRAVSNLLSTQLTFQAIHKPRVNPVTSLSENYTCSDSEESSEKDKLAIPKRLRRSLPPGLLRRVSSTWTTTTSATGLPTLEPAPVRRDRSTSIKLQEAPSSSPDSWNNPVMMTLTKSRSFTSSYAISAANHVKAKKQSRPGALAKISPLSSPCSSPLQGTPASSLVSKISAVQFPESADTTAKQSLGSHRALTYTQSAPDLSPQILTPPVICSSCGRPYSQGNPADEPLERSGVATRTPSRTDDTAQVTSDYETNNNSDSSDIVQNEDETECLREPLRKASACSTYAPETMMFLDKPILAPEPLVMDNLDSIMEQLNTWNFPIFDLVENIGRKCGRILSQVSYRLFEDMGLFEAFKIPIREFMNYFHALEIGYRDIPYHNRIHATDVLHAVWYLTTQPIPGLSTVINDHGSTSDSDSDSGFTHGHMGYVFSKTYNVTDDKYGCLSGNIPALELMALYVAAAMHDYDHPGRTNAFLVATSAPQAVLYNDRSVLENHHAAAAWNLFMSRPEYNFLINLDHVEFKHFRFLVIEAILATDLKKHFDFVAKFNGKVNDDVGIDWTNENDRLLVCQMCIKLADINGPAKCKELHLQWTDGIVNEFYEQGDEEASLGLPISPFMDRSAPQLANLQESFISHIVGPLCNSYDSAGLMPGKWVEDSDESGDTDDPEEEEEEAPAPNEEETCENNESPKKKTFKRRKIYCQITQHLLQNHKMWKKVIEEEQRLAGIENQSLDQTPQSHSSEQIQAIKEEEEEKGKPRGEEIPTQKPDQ
# Sequence of PDE8A1 Enzyme (O60658 whole entry): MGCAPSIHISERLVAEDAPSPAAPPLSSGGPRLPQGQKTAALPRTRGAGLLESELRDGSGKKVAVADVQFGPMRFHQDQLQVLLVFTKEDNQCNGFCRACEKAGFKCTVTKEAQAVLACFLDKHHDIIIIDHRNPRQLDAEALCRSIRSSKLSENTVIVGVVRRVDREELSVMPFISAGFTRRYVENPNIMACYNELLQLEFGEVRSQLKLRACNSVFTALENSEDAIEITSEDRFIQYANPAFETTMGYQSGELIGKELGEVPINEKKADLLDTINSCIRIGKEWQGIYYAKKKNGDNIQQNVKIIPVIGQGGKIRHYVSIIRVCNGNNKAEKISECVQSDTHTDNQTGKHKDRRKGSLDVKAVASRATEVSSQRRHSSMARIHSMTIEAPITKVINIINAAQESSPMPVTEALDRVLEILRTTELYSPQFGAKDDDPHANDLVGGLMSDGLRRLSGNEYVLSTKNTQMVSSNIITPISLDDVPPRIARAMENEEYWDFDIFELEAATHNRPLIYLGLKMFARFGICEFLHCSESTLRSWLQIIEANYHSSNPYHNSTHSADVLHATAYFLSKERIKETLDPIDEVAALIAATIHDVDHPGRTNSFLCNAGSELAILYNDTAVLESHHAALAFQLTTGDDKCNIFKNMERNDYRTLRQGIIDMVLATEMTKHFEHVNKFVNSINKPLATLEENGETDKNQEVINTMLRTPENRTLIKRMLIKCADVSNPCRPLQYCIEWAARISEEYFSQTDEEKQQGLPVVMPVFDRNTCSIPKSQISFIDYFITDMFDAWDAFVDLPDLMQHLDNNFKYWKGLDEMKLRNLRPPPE
smiles,measurement,setting,value
"Nc1ncnc2c1ncn2[C@@H]1O[C@@H]2COP(=O)(O)O[C@H]2[C@H]1O [cAMP, cyclic adenosine monophosphate]",Km,[1],230 µM
CCOC(=O)C1=C[C@]2(CC)CCCN3CCc4c(n1c1ccccc41)[C@@H]32 [vinpocetine],inhibition activity on PDE9,[2],no or very low inhibition activity
COc1ccc(C2CNC(=O)C2)cc1OC1CCCC1 (centres unmarked) [rolipram],inhibition activity on PDE9,[2],no or very low inhibition activity
"N#Cc1c(N2CCC3(CC2)COC3)c2ccncc2[nH]c1=O [Compound 24, 2-oxo-4-(2-oxa-7-azaspiro[3.5]nonane-7-yl)-1,2-dihydro-1,7-naphthyridin-3-carbonitrile]",IC50,[3],4920 nM
same,IC50,[4],> 10000 nM
same,IC50,[5],> 10000 nM
same,IC50,[6],> 10000 nM
"Nc1nc2c(ncn2[C@@H]2O[C@@H]3COP(=O)(O)O[C@H]3[C@H]2O)c(=O)[nH]1 [cGMP, cyclic guanosine monophosphate]",Km,[1],0.17 µM
CC(C)Cn1c(=O)n(C)c(=O)c2[nH]cnc21 [IBMX],inhibition activity on PDE9,[2],no or very low inhibition activity
OCCN(CCO)c1nc(N2CCCCC2)c2nc(N(CCO)CCO)nc(N3CCCCC3)c2n1 [dipyridamole],inhibition activity on PDE9,[2],no or very low inhibition activity
"N#Cc1c(N2CCC3(CC2)CC3)c2ccncc2[nH]c1=O [Compound 25, 2-oxo-4-(6-azaspiro[2.5]octane-6-yl)-1,2-dihydro-1,7-naphthyridin-3-carbonitrile]",Original drug residual % at 60 min,[7],87.5%
same,k,[7],0.0022 min⁻¹
same,CLint,[7],0.0044 mL · min^−1 · mg^−1 proteins
same,IC50,[3],> 3000 nM
same,half-life,[8],5.25 h
same,Vz_obs iv (apparent distribution volume),[9],1.27 L/kg
same,AUC(0-t),[9],574 ng·h/mL
same,clearance,[9],29.3 mL/min/kg
same,half-life,[9],0.51 h
same,Vz_obs iv (apparent distribution volume),"[10]; intravenous bolus 1 mg/kg, n = 3",7.06 L/kg
same,Tmax,"[10]; dog, plasma, po, intragastric 2 mg/kg, n = 3, median",0.5 h
same,AUC(0-inf),"[10]; dog, plasma, po, intragastric 2 mg/kg, n = 3, read-out: AUCinf po",4450 ng·h/mL
same,half-life,"[10]; dog, plasma, po, intragastric 2 mg/kg, n = 3, read-out: tz1/2 po (terminal elimination half-life) (converted)",9.45 h
same,bioavailability,"[10]; dog, plasma, dose iv/po 1/2 mg/kg, n = 3",99.1%
same,AUC(0-inf),"[10]; dog, plasma, intravenous bolus 1 mg/kg, n = 3, read-out: AUCinf iv",2240 ng·h/mL
same,clearance,"[10]; dog, plasma, intravenous bolus 1 mg/kg, n = 3, read-out: Cl_obs iv (clearance rate) (converted)",7.83 mL/min/kg
same,half-life,"[10]; dog, plasma, intravenous bolus 1 mg/kg, n = 3, read-out: tz1/2 iv (terminal elimination half-life) (converted)",10.4 h
same,Tmax,[11],1 h
same,AUC(0-t),[11],2050 ng·h/mL
same,half-life,[11],1.4 h
same,bioavailability,[11],74.2%
same,IC50,[4],> 3000 nM
same,IC50,[5],> 3000 nM
same,IC50,[6],> 3000 nM
"CCc1cc2c(N3CCC4(CC3)CC4)c(C#N)c(=O)[nH]c2cn1 [Compound 76, 6-ethyl-2-oxo-4-(6-azaspiro[2.5]octane-6-yl)-1,2-dihydro-1,7-naphthyridin-3-carbonitrile]",Original drug residual % at 60 min,[7],87.3%
same,k,[7],0.0015 min⁻¹
same,CLint,[7],0.0030 mL · min^−1 · mg^−1 proteins
same,half-life,[8],7.7 h
same,Vz_obs iv (apparent distribution volume),[9],1.25 L/kg
same,AUC(0-t),[9],1010 ng·h/mL
same,clearance,[9],17.3 mL/min/kg
same,half-life,[9],0.89 h
same,Tmax,[11],1 h
same,AUC(0-t),[11],5750 ng·h/mL
same,half-life,[11],9.6 h
same,bioavailability,[11],113%
CC(=O)Nc1ccc(-c2c[nH]c(=O)cn2)cc1 [SKF94120],inhibition activity on PDE9,[2],no or very low inhibition activity
"N#Cc1c(N2CCC3(CC2)CC3)c2cc(C(O)C3CC3)ncc2[nH]c1=O (centres unmarked) [Compound 90, 6-(cyclopropyl (hydroxy)methyl)-2-oxo-4-(6-azaspiro[2.5]octane-6-yl)-1,2-dihydro-1,7-naphthyridin-3-carbonitrile]",Original drug residual % at 60 min,[7],80.5%
same,k,[7],0.0037 min⁻¹
same,CLint,[7],0.0074 mL · min^−1 · mg^−1 proteins
same,half-life,[8],3.12 h
same,Vz_obs iv (apparent distribution volume),[9],1.38 L/kg
same,AUC(0-t),[9],1590 ng·h/mL
same,clearance,[9],10.5 mL/min/kg
same,half-life,[9],1.48 h
same,Tmax,[11],1 h
same,AUC(0-t),[11],3700 ng·h/mL
same,half-life,[11],4.49 h
same,bioavailability,[11],47.4%

# — patent publication US10889591B2, “PDE9 inhibitor and use thereof” (Nanjing TransThera Biosciences Co. Ltd., priority 2017, dated 2021)
